Assay results published in US20260022142A1, “MACROCYCLIC IMMUNOMODULATORS” (Bristol-Myers Squibb Company, priority 2022, published 2026).
Bridge positions count the residues as written; N and C are the ends. Square brackets hold non-standard residues; d marks the D form. Peptide text beside a SMILES is read from it. * marks the point of attachment. Phe(3-CF3) = N[C@@H](Cc1cccc(C(F)(F)F)c1)C(=O)O; Ala(morpholin-4-yl) = N[C@@H](CN1CCOCC1)C(=O)O; Phe(4-COOH) = N[C@@H](Cc1ccc(C(=O)O)cc1)C(=O)O; Bip = N[C@@H](Cc1ccc(-c2ccccc2)cc1)C(=O)O; NH(CH2)14COOH = O=C(O)CCCCCCCCCCCCCCN*; NH(CH2)12COOH = O=C(O)CCCCCCCCCCCCN*; Val(3-OH) = CC(C)(O)[C@H](N)C(=O)O; Cha = N[C@@H](CC1CCCCC1)C(=O)O; PEG4 = NCCOCCOCCOCCOCCC(=O)O; Carboxymethyl = O=C(O)C*; Nle = CCCC[C@H](N)C(=O)O; Orn = NCCC[C@H](N)C(=O)O; Dab = NCC[C@H](N)C(=O)O; AEEA = NCCOCCOCC(=O)O

Molecular target: T1, PD-1/PD-L1 interaction (PE-labeled human PD-L1-Ig binding to Jurkat cell line over-expressing human PD-1) (Homo sapiens, UniProt Q15116)
T1 construct: expressed in transfected cells; host or cells: Jurkat
T1 sequence (Q15116 25-288): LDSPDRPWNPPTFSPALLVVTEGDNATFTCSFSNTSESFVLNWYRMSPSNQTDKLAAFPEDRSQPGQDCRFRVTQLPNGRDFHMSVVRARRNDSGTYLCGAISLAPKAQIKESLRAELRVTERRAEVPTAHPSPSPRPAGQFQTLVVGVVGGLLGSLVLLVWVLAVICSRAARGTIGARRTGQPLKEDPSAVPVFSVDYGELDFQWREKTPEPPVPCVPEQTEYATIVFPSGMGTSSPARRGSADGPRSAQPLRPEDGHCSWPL
Experiment: Jurkat-PD-1 Cell Binding High-Content Screening Assay (CBA)
Format: cell-based
Conditions: Jurkat cell line over-expressing human PD-1; PE-labeled PD-L1-Ig 20 nM final; read-out: Jurkat hPD1-PDL1 IC50
Procedure, shortened: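 Read-out is high-content imaging of cell-bound phycoerythrin-tagged PD-L1-Ig on fixed, Hoechst-counterstained Jurkat cells that over-express human PD-1. Compound exposure lasts 2 h at 37° C before the labeled ligand (20 nM final) is added for a further hour.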

Compound	IC50
CCCC[C@@H]1NC(=O)CSC[C@@H](C(=O)N[C@@H](CCN)C(=O)NCCOCCOCCOCCOCCC(=O)NCCCCCCCCCCCCCCC(=O)O)NC(=O)[C@H](CO)NC(=O)[C@H](C(C)(C)O)NC(=O)[C@H](CC2CCCCC2)NC(=O)[C@H](CCN)NC(=O)[C@@H](CC(C)C)NC(=O)[C@H](CCCN)NC(=O)[C@H](Cc2ccc(C(=O)O)cc2)NC(=O)[C@H](Cc2ccc(-c3ccccc3)cc2)NC(=O)[C@H](Cc2ccc(C(=O)O)cc2)NC(=O)[C@H](Cc2cccc(C(F)(F)F)c2)NC(=O)[C@H](CC(=O)O)NC(=O)[C@H](Cc2ccc(OCC(=O)O)cc2)NC1=O [Compound 2912] ({CH2CO}-[Nle]Y(Carboxymethyl)D[Phe(3-CF3)][Phe(4-COOH)][Bip][Phe(4-COOH)][Orn][dL][Dab][Cha][Val(3-OH)]SC[Dab][PEG4]-{NH(CH2)14COOH}; thioether N-14)	240 nM
CCCC[C@@H]1NC(=O)CSC[C@@H](C(=O)N[C@@H](CCN)C(=O)NCCCCCCCCCCCCCCC(=O)O)NC(=O)[C@H](CO)NC(=O)[C@H](C(C)(C)O)NC(=O)[C@H](CC2CCCCC2)NC(=O)[C@H](CCN)NC(=O)[C@@H](CC(C)C)NC(=O)[C@H](CCCN)NC(=O)[C@H](Cc2ccc(C(=O)O)cc2)NC(=O)[C@H](Cc2ccc(-c3ccccc3)cc2)NC(=O)[C@H](Cc2ccc(C(=O)O)cc2)NC(=O)[C@H](Cc2cccc(C(F)(F)F)c2)NC(=O)[C@H](CC(=O)O)NC(=O)[C@H](Cc2ccc(OCC(=O)O)cc2)NC1=O [Compound 2913] ({CH2CO}-[Nle]Y(Carboxymethyl)D[Phe(3-CF3)][Phe(4-COOH)][Bip][Phe(4-COOH)][Orn][dL][Dab][Cha][Val(3-OH)]SC[Dab]-{NH(CH2)14COOH}; thioether N-14)	631 nM
CC(C)C[C@H]1NC(=O)[C@H](CCCN)NC(=O)[C@H](Cc2ccc(C(=O)O)cc2)NC(=O)[C@H](Cc2ccc(-c3ccccc3)cc2)NC(=O)[C@H](Cc2ccc(C(=O)O)cc2)NC(=O)[C@H](Cc2cccc(C(F)(F)F)c2)NC(=O)[C@H](CC(=O)O)NC(=O)[C@H](Cc2ccc(OCC(=O)O)cc2)NC(=O)[C@H](CN2CCOCC2)NC(=O)CSC[C@@H](C(=O)N[C@@H](CCN)C(=O)NCCOCCOCC(=O)NCCOCCOCC(=O)NCCCCCCCCCCCCC(=O)O)NC(=O)[C@H](CO)NC(=O)[C@H](C(C)(C)O)NC(=O)[C@H](CC2CCCCC2)NC(=O)[C@H](CCN)NC1=O [Compound 2914] ({CH2CO}-[Ala(morpholin-4-yl)]Y(Carboxymethyl)D[Phe(3-CF3)][Phe(4-COOH)][Bip][Phe(4-COOH)][Orn][dL][Dab][Cha][Val(3-OH)]SC[Dab][AEEA][AEEA]-{NH(CH2)12COOH}; thioether N-14)	24 nM
CC(C)C[C@H]1NC(=O)[C@H](CCCN)NC(=O)[C@H](Cc2ccc(C(=O)O)cc2)NC(=O)[C@H](Cc2ccc(-c3ccccc3)cc2)NC(=O)[C@H](Cc2ccc(C(=O)O)cc2)NC(=O)[C@H](Cc2cccc(C(F)(F)F)c2)NC(=O)[C@H](CC(=O)O)NC(=O)[C@H](Cc2ccc(OCC(=O)O)cc2)NC(=O)[C@H](CN2CCOCC2)NC(=O)CSC[C@@H](C(=O)N[C@@H](CCN)C(=O)NCCOCCOCC(=O)NCCOCCOCC(=O)NCCCCCCCCCCCCCCC(=O)O)NC(=O)[C@H](CO)NC(=O)[C@H](C(C)(C)O)NC(=O)[C@H](CC2CCCCC2)NC(=O)[C@H](CCN)NC1=O [Compound 2915] ({CH2CO}-[Ala(morpholin-4-yl)]Y(Carboxymethyl)D[Phe(3-CF3)][Phe(4-COOH)][Bip][Phe(4-COOH)][Orn][dL][Dab][Cha][Val(3-OH)]SC[Dab][AEEA][AEEA]-{NH(CH2)14COOH}; thioether N-14)	176 nM
